Assay results as given in patent publication US5028440A, “Method of raising meat producing animals to increase lean tissue development” (Iowa State University Research Foundation, Inc., priority 1990, dated 1991).
“Also recorded” adds a separate entry of the source.

Assays:
domestic animals [1] = assay: Growth metabolism of domestic animals, HMB compared with KIC (summary statement); conditions: in vivo
male leghorn chicks = assay: Feeding HMB to Poultry: growth, feed efficiency and breast muscle of chicks; type: in vivo; conditions: 0.04% of the diet; for Feed/gain / Breast muscle / Gain: 5 week data; for Feed/gain: control 2.30; for Breast muscle: control 2.84; for Gain: control 222; for Breast muscle, change from control / Feed/gain, change from control: ** (HMB) significant at p < .02
Method: (§1) To compare KIC and HMB as growth promotants, young male leghorn chicks were allotted to 12 battery (wire mess floors) pens consisting of 10 birds each. Treatments of control, HMB (0.04% of the diet) and KIC (0.04% of the diet) were assigned to the pens. Feed consumption was measured during the 5 week experiment. During week 2 of the experiment chicks were injected with 50 ul of a 20% suspension of pig red blood cells intraperitoneally.
(§2) Chicks were fed a diet adequate in all nutrients for leghorns of this age. HMB was a supplement to this diet at 0.04% of the diet (w/w).
(§3) At the end of the 5 week experiment chicks were decapitated and serum collected for pig red blood cells antibody titer determination. Titers to red blood cells were evaluated by a microtiter agglutination test (Kuhlman, et al.). Also, the Pectoralis major muscle (the major breast muscle) was dissected and weighed as a measure of muscle growth.

pig red blood cells = assay: Pig red blood cell antibody titer in chicks (microtiter agglutination test); type: in vivo, chicks (male leghorn); conditions: 0.04% of the diet, 5 weeks; for Red blood cell titer, change from control: ** (HMB) significant at p < .02; for Red blood cell titer: pig red blood cells injected week 2, control 1.57
Method: as §1, §2, §3

lambs [2] = assay: Feeding of HMB to Lambs--Trial 2; type: in vivo
Source text: Animals and Experimental Design. Twenty-two lambs were housed individually in fiberglass pens (1.15 m^2) and randomly assigned to control or HMB diets. The control had nothing added to the diet while the HMB animals had 1 g of CaHMB supplemented to their diets each day. At the beginning of the experiment animals were weighed and ultrasound measurement made of the longissimus area and the amount of fat over the longissimus muscle. These measurements were made over the 12th rib area. Feed consumption was monitored. At the end of the experiment animals were weighed, feed consumption measured and the longissimus area and fat thickness measured again with the ultrasound apparatus. The gain in longissimus area and backfat were calculated from the initial value.
Composition of Basal Diet Fed to All Sheep
(§4) Trace mineral & vitamin premix

lambs [3] = assay: Feeding of HMB to Lambs--Trial 1; type: in vivo
Source text: Animals and Experimental Design. Three sets of twin lambs were housed individually in fiberglass pens. Animals were randomly assigned to control or HMB diets, using Ca-HMB as the feed additive at a level of 0.5% of the basal diet.
Composition of Basal Diet Fed to All Sheep.
as §4

[4] = Stability of KIC or HMB in the rumen (incubation in rumen fluid); type: in vitro ADME, steer; conditions: for KIC or HMB in rumen fluid: 39° C.
Method: Rumen fluid was collected from a fistulated steer. After filtration and dilution (1:4) with an artificial saliva, 25ml of the solution was added to 50ml plastic tubes. Each tube was fitted with a one-way valve to allow gases to escape while not allowing air into the tube. Each tube was then gassed with CO2 and incubated at 39° C. After 30 min a solution of KIC or HMB was added to the tube in concentrations to simulate what would be present in the rumen of an animal consuming 0.05% of the diet as KIC or HMB. It was estimated that a 50 uM concentration would be attained in this case. At timed intervals 50 ul samples of this rumen fluid were taken and analyzed for KIC and HMB.

[5] = Hygroscopicity of HMB salts; type: physicochemical
domestic animals [6] = conditions: cited from earlier work
[7] = KIC fed as replacement for leucine; cited from earlier work
[8] = feeds for cattle and sheep; background statement; cited from earlier work
[9] = 0 min after addition, rumen fluid diluted 1:4 with artificial saliva, initial KIC could only be estimated
[10] = 15 min after addition, rumen fluid diluted 1:4
[11] = 30 min after addition, rumen fluid diluted 1:4
[12] = 60 min after addition, rumen fluid diluted 1:4
[13] = 240 min after addition, rumen fluid diluted 1:4
[14] = 480 min after addition, rumen fluid diluted 1:4

In the case of `CC(C)(O)CC(=O)O` [HMB, β-hydroxy-β-methyl butyric acid], the “improving growth metabolism compared with KIC (in words)” value (domestic animals [1]) is reported as “more effective for improving growth metabolism of domestic animals”, the “lean tissue development (in words)” value (domestic animals [1]) is reported as “increase markedly the development of lean tissue” and the Feed/gain (male leghorn chicks) is reported as 2.17. For the same compound, the Breast muscle (male leghorn chicks) was 3.00%, the Gain (male leghorn chicks) was 229 g and the “Gain, change from control” value (male leghorn chicks; 5 weeks) was 3.3%. For the same compound, the “comparison with KIC in all parameters (in words)” value (male leghorn chicks; 5 weeks) was “superior in all parameters measured”, the “performance of growing chicks (in words)” value (male leghorn chicks; 5 weeks) was “increased performance of growing chicks by increasing the rate of growth and by making more efficient use of feed for growth” and the “Breast muscle, change from control” value (male leghorn chicks; 5 weeks) was 5.5%. For the same compound, the “Feed/gain, change from control” value (male leghorn chicks; 5 weeks) was -5.8%, the “Red blood cell titer, change from control” value (pig red blood cells) was 107% and the “Red blood cell titer” value (pig red blood cells) was 3.25 dilution. The Feed/gain (lambs [2]; 1 g CaHMB per day, control 4.41) was 4.28, the Total gain (lambs [2]; 1 g CaHMB per day, lambs from 60 lbs. to 100 lbs., control 38.5) was 40.5 lbs and the Loin area gain (lambs [2]; 1 g CaHMB per day, ultrasound, control 2.08) was 3.34 cm2. For the same compound, the Back fat gain (lambs [2]; 1 g CaHMB per day, ultrasound, control .27) was “.19 cm”, the “% Change, Feed/gain” value (lambs [2]; vs control) was -3% and the “% Change, Total gain” value (lambs [2]; vs control) was “+6%”. The “performance and lean vs. fat gain (in words)” value (lambs [2]; vs control) was “increases preformance and increases lean vs. fat gain”, the “% Change, Back fat gain” value (lambs [2]; vs control, **P < .02 level) was -30% and the “% Change, Loin area gain” value (lambs [2]; vs control, **P < .02 level) was 60%. The Longissimus area (lambs [3]; Ca-HMB 0.5% of the basal diet, control 2.1) was 2.3 sq. in, the “Renal Fat %” value (lambs [3]; Ca-HMB 0.5% of the basal diet, control 2.42) was 1.90 % of animal live weight and the Feed/gain (lambs [3]; Ca-HMB 0.5% of the basal diet, control 3.89) was 3.60. For the same compound, the “Back Fat (fat thickness over 12th rib)” value (lambs [3]; Ca-HMB 0.5% of the basal diet, control .21) was “.12 in”, the Average daily gain (lambs [3]; Ca-HMB 0.5% of the basal diet, control .287) was “.296 kg/day” and the “lean tissue and fat growth (in words)” value (lambs [3]; limited study, vs controls) was “appeared to stimulate growth of lean tissues at the expense of fat”. The “% change due to HMB, Average daily gain” value (lambs [3]; vs controls) was “+3%”, the “% change due to HMB, Feed/Gain” value (lambs [3]; vs controls) was -7% and the “% change due to HMB, Longissimus area” value (lambs [3]; vs controls) was “+10%”. For the same compound, the “% change due to HMB, Back Fat” value (lambs [3]; vs controls, *P < 0.5) was -43%, the “% change due to HMB, Renal Fat” value (lambs [3]; vs controls, *P < 0.5) was -22% and the “stability in rumen environment (in words)” value [4] was “not being subject to appreciable rumen destruction; also recorded: not subject to significant rumen destruction; also recorded: quite stable in a rumen environment”. The “KIC or HMB in rumen fluid” value [4, 9] was 60 µM, the “KIC or HMB in rumen fluid” value [4, 10] was 76 µM and the “KIC or HMB in rumen fluid” value [4, 11] was 81 µM. For the same compound, the “KIC or HMB in rumen fluid” value [4, 12] was 71 µM, the “KIC or HMB in rumen fluid” value [4, 13] was 74 µM and the “KIC or HMB in rumen fluid” value [4, 14] was 74 µM.
In the case of `CC(C)(O)CC(=O)O` [Na-HMB], the “hygroscopicity (in words)” value [5] is reported as “more hydroscopic than Ca-HMB”.
In the case of `CC(C)CC(=O)C(=O)O` [KIC, α-keto-isocaproic acid, reference compound], the “accumulation of body fat (in words)” value (domestic animals [1]) is reported as “slight tending for KIC to reduce the accumulation of body fat”, the “lean tissue development (in words)” value (domestic animals [1]) is reported as “not obtainable with KIC” and the Feed/gain (male leghorn chicks) is reported as 2.24. For the same compound, the Breast muscle (male leghorn chicks) was 2.94%, the Gain (male leghorn chicks) was 229 g and the “Gain, change from control” value (male leghorn chicks; 5 weeks) was 3.3%. For the same compound, the “Breast muscle, change from control” value (male leghorn chicks; 5 weeks) was 3.5%, the “Feed/gain, change from control” value (male leghorn chicks; 5 weeks) was -2.5% and the “Red blood cell titer, change from control” value (pig red blood cells) was 68%. For the same compound, the “Red blood cell titer” value (pig red blood cells) was 2.65 dilution, the “effects on the immune system (in words)” value (domestic animals [6]; U.S. Pat. No. 4,835,185) was “some apparently beneficial effects on the immune system” and the “cholesterol in meat, milk and eggs (in words)” value (domestic animals [6]; U.S. Pat. Nos. 4,760,090 and 4,760,531) was “cholesterol reduction in meat, milk and eggs”. For the same compound, the “consistency of beneficial effects (in words)” value (domestic animals [6]; domestic animals, particularly ruminants) was “not consistently obtainable”, the “milk production (in words)” value (domestic animals [6]; lactating domestic animals, such as dairy cattle, U.S. Pat. No. 4,758,593) was “the quantity of milk produced may be increased” and the “egg production (in words)” value (domestic animals [6]; laying chickens, U.S. Pat. No. 4,760,531) was “can also sometimes be increased”. For the same compound, the “wool production (in words)” value (domestic animals [6]; mature sheep, U.S. Pat. No. 4,760,090) was “the amount of wool produced may also be increased”, the “rates of weight gain and/or feed efficiencies (in words)” value (domestic animals [6]; milligram amounts of KIC, U.S. Pat. Nos. 4,760,090 and 4,883,817) was “some increases in the rates of weight gain and/or feed efficiencies have been obtained” and the “muscle growth (in words)” value (domestic animals [6]; previous research) was “generally has not been found to stimulate muscle growth”. For the same compound, the “fat deposition (in words)” value (domestic animals [6]; sheep, previous research) was “decrease fat deposition”, the “amount of KIC required relative to nutritionally required amount of leucine” value [7] was “two to three” and the “rumen destruction (in words)” value [8] was “subject to partial rumen destruction”. For the same compound, the “stability in rumen environment (in words)” value [4] was “rapidly destroyed by the rumen bacteria”, the “KIC or HMB in rumen fluid” value [4, 9] was 30 µM and the “KIC or HMB in rumen fluid” value [4, 10] was 15 µM. For the same compound, the “KIC or HMB in rumen fluid” value [4, 11] was 4 µM, the “KIC or HMB in rumen fluid” value [4, 12] was 2 µM and the “KIC or HMB in rumen fluid” value [4, 13] was 2 µM. The “KIC or HMB in rumen fluid” value [4, 14] was 1 µM.
